From patent publication US10689421B2, “Bacteriocin-producing Paenibacillus ehimensis and application thereof” (National Pingtung University of Science and Technology, priority 2018, dated 2020) come the findings set out here.

The test system of one test is P. ehimensis NPUST-1. The test can be described thus: Inhibition effect of aquacultural antibiotics against NPUST-1 strain (inhibitory zone). It counts as cell-based, Paenibacillus ehimensis. On the set-up: inhibitory zone size: unit not given here. The following applies: TSB agar plate containing P. ehimensis NPUST-1; each antibiotic at its maximum concentration for aquaculture (Table 4). An excerpt:
To find out competent antibiotics for combination with NPUST-1 bacterial strain used as a probiotic, inhibition effect of varies aquacultural antibiotics against NPUST-1 bacterial strain are examined. Detailed testing steps are described as below.
Following antibiotics are examined: amoxicillin, ampicillin, doxycycline, erythromycin, furazolidone, flumequine, ormetoprim, oxytetracycline, sulfadimethoxine, chloramphenicol, gentamycin and kanamycin. The antibiotics concentration (shown in table 4) being tested are the available maximum concentration conformed to the drug regulation for aquaculture. After all the antibiotics are prepared, use TSB agar plate containing P. ehimensis NPUST-1 to determine the antibacterial activity and measure the inhibitory zone of antibiotics.
Consider `CC1(C)S[C@@H]2[C@H](NC(=O)[C@H](N)c3ccc(O)cc3)C(=O)N2[C@H]1C(=O)O` [Amoxicillin, amoxicillin], for which the inhibitory zone size was determined as 2.30 ± 0.10. Same read-out and setting: then `O=C(N[C@H](CO)[C@H](O)c1ccc([N+](=O)[O-])cc1)C(Cl)Cl` [Chloramphenicol, chloramphenicol], with 2.67 ± 0.06; and `C[C@H]1c2cccc(O)c2C(=O)C2=C(O)[C@]3(O)C(=O)C(C(N)=O)=C(O)[C@@H](N(C)C)[C@@H]3[C@@H](O)[C@@H]21` [Doxycycline, doxycycline], with 3.30 ± 0.00; and `CC[C@H]1OC(=O)[C@H](C)[C@@H](O[C@H]2C[C@@](C)(OC)[C@@H](O)[C@H](C)O2)[C@H](C)[C@@H](O[C@@H]2O[C@H](C)C[C@H](N(C)C)[C@H]2O)[C@](C)(O)C[C@@H](C)C(=O)[C@H](C)[C@@H](O)[C@]1(C)O` [Erythromycin, erythromycin], with 1.73 ± 0.06. Same read-out and setting: the value for `CC1CCc2cc(F)cc3c(=O)c(C(=O)O)cn1c23` (centres unmarked) [Flumequine, flumequine] was 5.67 ± 0.06; that for `O=C1OCCN1/N=C/c1ccc([N+](=O)[O-])o1` [Furazolidone, furazolidone] was 1.00 ± 0.00. With `NC[C@H]1O[C@H](O[C@H]2[C@H](O)[C@@H](O[C@H]3O[C@H](CO)[C@@H](O)[C@H](N)[C@H]3O)[C@H](N)C[C@@H]2N)[C@H](O)[C@@H](O)[C@@H]1O` [Kanamycin, kanamycin], the inhibitory zone size is on record as 1.13 ± 0.03. For `COc1cc(C)c(Cc2cnc(N)nc2N)cc1OC` [Ormetoprim, ormetoprim], the inhibitory zone size is reported as 4.60 ± 0.00. On the same count and under the same terms, the value for `CN(C)[C@@H]1C(O)=C(C(N)=O)C(=O)[C@@]2(O)C(O)=C3C(=O)c4c(O)cccc4[C@@](C)(O)[C@H]3[C@H](O)[C@@H]12` [Oxytetracycline, oxytetracycline] was 2.13 ± 0.06; that for gentamycin was 2.03 ± 2.03.

Staying with this test, now noted: in words.
With `CC1(C)S[C@@H]2[C@H](NC(=O)[C@H](N)c3ccccc3)C(=O)N2[C@H]1C(=O)O` [Ampiciliin, ampicillin], the “resistance of the strain NPUST-1 against the antibiotic” value is listed as “resistance”. Same read-out and setting: the value for `Cc1ccnc(NS(=O)(=O)c2ccc(N)cc2)n1` [sulfamerazine] was “resistance”.

Still in this test, the particulars now being: in words; antibiotic at maximum concentration for aquaculture.
In the case of `CC1(C)S[C@@H]2[C@H](NC(=O)[C@H](N)c3ccccc3)C(=O)N2[C@H]1C(=O)O` [Ampiciliin, ampicillin], the “inhibition effect against P. ehimensis NPUST-1” value is given as “no inhibition effect”. In the case of `COc1cc(NS(=O)(=O)c2ccc(N)cc2)nc(OC)n1` [Sulfadimethoxine, sulfadimethoxine], the “inhibition effect against P. ehimensis NPUST-1” value is “no inhibition effect”.
